The nature of test [1]: DPPH free radical scavenging assay. In kind it is biochemical. The method, then: The DPPH assay was used to evaluate the free radical-scavenging of chlorophyllide. Briefly, DPPH (8 mg) was dissolved in methanol (100 mL) to obtain a stock solution of 80 μg/mL. Then, 2.95 mL of the working solution was mixed with 50 μL of sample. After incubation in a dark at room temperature for 20 min, the absorbance was measured at 517 nm. The DPPH scavenging effect (%) was determined using the following formula: […]
where Ac was the absorbance of the blank control, Ai was the absorbance in the presence of the samples, and Aj was the absorbance of the samples alone. Vitamin B2 was used as a reference standard compound.
A general note: Loss of DPPH colour is used to gauge radical scavenging.

The subject of test [2] is MCF7 breast cancer cells. Particulars: FIG. 4 comparison, MTT, 0 to 200 μg/mL.
For test [3], the system named is MCF7 breast cancer cells. Kind of test: Target gene expression by RT-PCR, MCF7. In kind it is cell-based, human. Particulars: MCF7 treated with chlorophyllide. The text has this:
(§1) Then, among the 50 candidate genes, CCR1, STIM2, ETNK1, RAP2B, and TOP2A were used as target genes in real-time polymerase chain reaction (RT-PCR).

Test [4] has as its system MCF7 / MDA-MB-231 breast cancer cells. Kind of test: Log2 fold change of target genes (Table 5, cell line and method not stated). The class given is cell-based, human. The method, then:
The gene expression profiles of the MCF7 breast cancer cells treated with chlorophyllide or MDA-MB-231 breast cancer cells treated with chlorophyllide and the corresponding untreated cells were analyzed by using next generation sequencing (NGS).
as §1

Test [5] deals with MDA-MB-231 breast cancer cells. Kind of test: Target gene expression by RT-PCR, MDA-MB-231. In kind it is cell-based, human. The conditions noted are these: MDA-MB-231 treated with chlorophyllide.
Excerpt: as §1

`Cc1cc2nc3c(=O)[nH]c(=O)nc-3n(C[C@H](O)[C@H](O)[C@H](O)CO)c2cc1C` [vitamin B2] had a DPPH scavenging rate in test [1] (100 μg/mL) of 28.05%.

With chlorophyllin, the DPPH scavenging rate in test [1] (100 μg/mL) is 25.68%; in test [1] (200 μg/mL), 30.58%; in test [1] (400 μg/mL) it was 45.34%. Further, the IC50 (as a rule, the concentration needed to halve the response being measured) in the test on MCF7 breast cancer cells [2] amounted to 218.34 µg/mL.

As to chlorophyllide, the “gene expression level by RT-PCR, CCR1” value in the test with MCF7 breast cancer cells [3] (gene CCR1) is reported as 6.798; in test [5] (gene CCR1) it was 10.079. For the same compound, the “gene expression level by RT-PCR, ETNK1” value in the test on MCF7 breast cancer cells [3] (gene ETNK1) is on record as 1.987; in test [5] (gene ETNK1) it was 5.954. Besides, the “gene expression level by RT-PCR, MAGI1” value in the test with MCF7 breast cancer cells [3] (gene MAGI1) turned out to be 3.126; in test [5] (gene MAGI1), 1.3977. For the same compound, the figures for the “gene expression level by RT-PCR, NLRC5” value (in the test with MCF7 breast cancer cells [3] (gene NLRC5); in test [5] (gene NLRC5)) were 0.684 and 5.527, respectively. For the same compound, the entries for the “gene expression level by RT-PCR, PKN1” value (in the test on MCF7 breast cancer cells [3] (gene PKN1); in test [5] (gene PKN1)) were 1.167 and 0.5819, respectively. Also, the “gene expression level by RT-PCR, RAP2B” value in the test on MCF7 breast cancer cells [3] (gene RAP2B) was determined as 0.5882; in test [5] (gene RAP2B), 3.694. Moreover, the “gene expression level by RT-PCR, SLC7A7” value in the test with MCF7 breast cancer cells [3] (gene SLC7A7) is 0.3107; in test [5] (gene SLC7A7) it was 1.159. In addition, the “gene expression level by RT-PCR, STIM2” value in the test on MCF7 breast cancer cells [3] (gene STIM2) is 6.125; in test [5] (gene STIM2), 3.5088. For the same compound, the figures for the “gene expression level by RT-PCR, TOP2A” value (in the test with MCF7 breast cancer cells [3] (gene TOP2A); in test [5] (gene TOP2A)) were 1.574 and 11.02, respectively. Moreover, the “Log2 fold change, CCR1” value in test [4] (gene CCR1) is recorded as 5.954. Also, the “Log2 fold change, ETNK1” value in test [4] (gene ETNK1) stood at 2.181. Also, the “Log2 fold change, RAP2B” value in test [4] (gene RAP2B) is given as 2.375. Also, the “Log2 fold change, STIM2” value in test [4] (gene STIM2) is on record as 2.783. Further, the DPPH scavenging rate in test [1] (100 μg/mL) is 31.01%; in test [1] (200 μg/mL), 26.92%; in test [1] (400 μg/mL), 26.09%.

On to chlorophyll, for which the DPPH scavenging rate in test [1] (100 μg/mL) came out at 52.95%; in test [1] (200 μg/mL) it was 65.11%; in test [1] (400 μg/mL), 88.62%. The “EC50 (concentration that can inhibit 50% of DPPH free radicals)” value in test [1] (by extrapolation from regression analysis) was 62.14 µg/mL. This compound also displayed an IC50 in the test with MCF7 breast cancer cells [2] of 197.31 µg/mL.

Source of the values: US20220175729A1, “PHARMACEUTICAL USE OF CHLOROPHYLLIDE FOR CANCER THERAPY” (I-SHOU UNIVERSITY, priority 2020, published 2022).
